Test [1] deals with Ba/F3_KRAS^G12D cells (Homo sapiens, UniProt P01116, G12D, cells depend on it). The test can be described thus: Ba/F3 KRAS G12D cell proliferation assay (CellTiter-Glo). The test is classed as cell-based. The note with it: treated for 3 days, cell-titer Glo, cell growth inhibition, read-out: BaF3_KRAS^G12D IC50. As for the experimental part: Ba/F3_KRAS^G12D cells (KYinno, China) were generated by transducing Ba/F3 parental cells with the recombinant KRAS^G12D lentivirus and followed by 1 ug/mL of puromycin selection and IL3 depletion. […] Cells were seeded at a density of 5×10^3 per well into 96-well plate and incubated overnight. Serial diluted compounds were added to each well. Cells were treated with the compounds for 3 days, after which cell-titer Glo reagent (Promega #G7572) was used to assess cell proliferation. The luminescence signal was then collected on Tecan Spark plate reader. […] Cell growth inhibition of IC50 is calculated with the equation of Y=Bottom+(Top−Bottom)/(1+10^((Log IC50−X)*Hill Slope))
For orientation: In ATP-based viability assays light output follows the ATP content of the culture.

Test [2] has as its target recombinant human KRAS^G12D protein (Homo sapiens, UniProt P01116, G12D). The test can be described thus: Temperature-dependent Fluorescence (TdF) KRAS G12D protein binding assay. The note with it: 6 μM KRAS^G12D protein, 10 μM compound, Sypro Orange; Kd calculated from the fluorescent shift. The method, then: The Temperature-dependent Fluorescence (TdF) assay was used to analyze binding affinity of compound to recombinant human KRAS^G12D protein. The TdF assay was conducted in the 96-well-based real-time fluorescence plate reader (ABI 7500 or Roche LightCycler 480). Fluorescent dye Sypro Orange (Sigma) was used to monitor the protein folding-unfolding transition. Protein-compound binding was gauged by the shift in the unfolding transition temperature (ΔTm) acquired with and without compound. Each reaction sample consists of 6 μM KRAS^G12D Protein, 10 μM compound, and Sypro Orange dye (in 1% DMSO) in 20 μL reaction buffer (25 mM HEPES pH 7.5, 150 mM NaCl, 10 mM MgCl2). […] Binding affinity (Kd value) was calculated based on the degree of fluorescent shift of the protein with and without compound.

Ba/F3_KRAS^G12D cells, sequence (P01116 whole entry G12D): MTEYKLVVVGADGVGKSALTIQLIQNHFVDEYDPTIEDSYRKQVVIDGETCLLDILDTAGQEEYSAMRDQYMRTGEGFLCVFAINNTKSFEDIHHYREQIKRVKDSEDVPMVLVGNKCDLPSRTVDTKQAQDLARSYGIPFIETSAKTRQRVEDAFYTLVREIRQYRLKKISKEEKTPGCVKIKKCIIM
recombinant human KRAS^G12D protein, sequence (P01116 1-188 isoform P01116-2 G12D): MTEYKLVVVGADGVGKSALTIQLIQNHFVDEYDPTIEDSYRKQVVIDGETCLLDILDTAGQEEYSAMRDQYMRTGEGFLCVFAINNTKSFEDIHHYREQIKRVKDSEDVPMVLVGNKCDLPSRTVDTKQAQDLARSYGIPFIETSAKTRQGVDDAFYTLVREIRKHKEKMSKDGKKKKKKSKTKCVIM

Take `CN1CC(COc2nc(N3CC4CCC(C3)N4)c3cc(Cl)c(-c4cc(O)cc5ccccc45)c(F)c3n2)CC(F)(F)C1` (centres unmarked) [Compound 50]: the GI50 in test [1] fell in the range of 0.5 to 5 µM. Besides, the Kd in test [2] is 0.5 to 5 µM.

Consider `CN(C)C1CCN(c2nc(N3CC4CCC(C3)N4)c3cc(Cl)c(-c4cc(O)cc5ccccc45)c(F)c3n2)CC1` [Compound 54], for which, in test [1], the GI50 lay within 0.5 to 5 µM. Moreover, in test [2], the Kd is greater than 5 µM.

In the case of `Oc1cc(-c2c(Cl)cc3c(N4CC5CCC(C4)N5)nc(OCC45CCCN4CC(F)(F)C5)nc3c2F)c2c(Cl)cccc2c1` (centres unmarked) [Compound 65], the GI50 in test [1] lay within 0.5 to 5 µM. In addition, the Kd in test [2] is less than 0.5 µM.

`CN1CC2CN(c3nc(N4CC5CCC(C4)N5)c4cc(Cl)c(-c5cc(O)cc6ccccc56)c(F)c4n3)CC2C1` (centres unmarked) [Compound 40]: the GI50 in test [1] was 0.5 to 5 µM. For the same compound, the Kd in test [2] was greater than 5 µM.

Take `Oc1cc(-c2c(Cl)cc3c(N4CC5CCC(C4)N5)nc(OC[C@@]45CCCN4C[C@H](F)C5)nc3c2F)c2c(Cl)cccc2c1` [Compound 58]: the GI50 in test [1] was less than 0.5 µM. For the same compound, in test [2], the Kd is less than 0.5 µM.

In the case of `N#Cc1cc2c(N3CC4CCC(C3)N4)nc(OC[C@@]34CCCN3C[C@H](F)C4)nc2c(F)c1-c1c(N)cccc1F` [Compound 91], the GI50 in test [1] fell in the range of 0.5 to 5 µM. Moreover, in test [2], the Kd was greater than 5 µM.

With `CN(C)CCCOc1nc(N2CC3CCC(C2)N3)c2cc(Cl)c(-c3cccc4cccc(Cl)c34)c(F)c2n1` [Compound 6], in test [1], the GI50 lay in the range of 0.5 to 5 µM. Besides, the Kd in test [2] was greater than 5 µM.

As for `C[C@H]1CNCCN1c1nc(OC[C@@H]2CCCN2C)nc2c(F)c(-c3cc(O)cc4ccccc34)c(Cl)cc12` [Compound 3], in test [1], the GI50 is 0.5 to 5 µM. Besides, in test [2], the Kd is greater than 5 µM.

As for `Cc1cccc2cccc(-c3c(C#N)cc4c(N5CC6CCC(C5)N6)nc(OC[C@@]56CCCN5C[C@H](F)C6)nc4c3F)c12` [Compound 87], in test [1], the GI50 was in the range of 0.5 to 5 µM. The Kd in test [2] was 0.5 to 5 µM.

As for `Oc1cc(-c2c(Cl)cc3c(N4CC5CCC(C4)N5)nc(OC[C@@]45CCCN4C[C@H](F)C5)nc3c2F)c2c(Cl)c(F)ccc2c1` (single isomer, unassigned) [Compound 139], the GI50 in test [1] was less than 0.5 µM. In addition, the Kd in test [2] was less than 0.5 µM.

Consider `CN1CCOCC1COc1nc(N2CC3CCC(C2)N3)c2cc(Cl)c(-c3cc(O)cc4ccccc34)c(F)c2n1` (centres unmarked) [Compound 57], for which the GI50 in test [1] lay in the range of 0.5 to 5 µM. The Kd in test [2] is greater than 5 µM.

With `Oc1cccc(F)c1-c1c(Cl)cc2c(N3C4CCC3CNC4)nc(OCC34CCCN3CCC4)nc2c1F` [Compound 67], in test [1], the GI50 is greater than 5 µM. Besides, the Kd in test [2] is 0.5 to 5 µM.

With `Nc1cccc(F)c1-c1c(Cl)cc2c(N3CC4CCC(C3)N4)nc(OCC34CCCN3CCC4)nc2c1F` [Compound 32], in test [1], the GI50 was greater than 5 µM. The Kd in test [2] was 0.5 to 5 µM.

For `N#Cc1cc2c(N3CC4CCC(C3)N4)nc(OC[C@@]34CCCN3C[C@H](F)C4)nc2c(F)c1-c1cc(O)cc2cccc(Cl)c12` (single isomer, unassigned) [Compound 119], in test [1], the GI50 was in the range of 0.5 to 5 µM. Moreover, in test [2], the Kd was greater than 5 µM.

In the case of `CNC(=O)c1cc2c(N3CC4CCC(C3)N4)nc(OC[C@@]34CCCN3C[C@H](F)C4)nc2c(F)c1-c1cc(O)cc2cccc(Cl)c12` [Compound 122], the GI50 in test [1] is greater than 5 µM. Further, the Kd in test [2] was less than 0.5 µM.

As for `Fc1c(-c2cccc3cccc(Cl)c23)c(Cl)cc2c(N3C4CCC3CNC4)nc(OCC34CCCN3CCC4)nc12` [Compound 72], the GI50 in test [1] fell in the range of 0.5 to 5 µM. In test [2], the Kd is 0.5 to 5 µM.

For the compound `Oc1cc(-c2c(Cl)cc3c(N4CC5CCC(C4)N5)nc(OCCN4CCOCC4)nc3c2F)c2ccccc2c1` [Compound 59], the GI50 in test [1] lay in the range of 0.5 to 5 µM. Also, in test [2], the Kd was greater than 5 µM.

On to `CN1CCC(c2nc(N3CC4CCC(C3)N4)c3cc(Cl)c(-c4cc(O)cc5ccccc45)c(F)c3n2)CC1` [Compound 60], for which, in test [1], the GI50 lay in the range of 0.5 to 5 µM. In addition, in test [2], the Kd was greater than 5 µM.

`CN1CCC2CN(c3nc(N4CC5CCC(C4)N5)c4cc(Cl)c(-c5cc(O)cc6ccccc56)c(F)c4n3)CC2C1` (centres unmarked) [Compound 43]: the GI50 in test [1] lay in the range of 0.5 to 5 µM. Besides, the Kd in test [2] is greater than 5 µM.

Regarding `CCc1cccc2cc(O)cc(-c3c(Cl)cc4c(N5CC6CCC(C5)N6)nc(OC[C@@]56CCCN5C[C@H](F)C6)nc4c3F)c12` (single isomer, unassigned) [Compound 133], the GI50 in test [1] is less than 0.5 µM. In addition, in test [2], the Kd was less than 0.5 µM.

As to `N#Cc1cc2c(N3CC4CCC(C3)N4)nc(OC[C@@]34CCCN3C[C@H](F)C4)nc2c(F)c1-c1cc(O)cc2cccc(Cl)c12` [Compound 55], the GI50 in test [1] is less than 0.5 µM. Moreover, in test [2], the Kd was less than 0.5 µM.

`CN1CCC[C@H]1COc1nc(N2CC3CCC(C2)N3)c2cc(Cl)c(-c3c(N)cccc3F)c(F)c2n1` [Compound 31]: the GI50 in test [1] was 0.5 to 5 µM. For the same compound, the Kd in test [2] was greater than 5 µM.

As to `Cc1cc(F)c2sc(N)nc2c1-c1c(Cl)cc2c(N3CC4CCC(C3)N4)nc(OC[C@@]34CCCN3C[C@H](F)C4)nc2c1F` [Compound 100], the GI50 in test [1] lay within 0.5 to 5 µM. In test [2], the Kd was less than 0.5 µM.

As to `Cc1cc(N)nc(-c2c(Cl)cc3c(N4CC5CCC(C4)N5)nc(OC[C@@H]4CCCN4C)nc3c2F)c1` [Compound 130], the GI50 in test [1] was greater than 5 µM. In addition, the Kd in test [2] was greater than 5 µM.

Regarding `CN1CC2(CCN(c3nc(N4CC5CCC(C4)N5)c4cc(Cl)c(-c5cc(O)cc6ccccc56)c(F)c4n3)CC2)C1` [Compound 45], the GI50 in test [1] lay in the range of 0.5 to 5 µM. Besides, the Kd in test [2] is greater than 5 µM.

Regarding `CN1CCC[C@H]1COc1nc(N2CC3CCC(C2)N3)c2cc(Cl)c(-c3cccc4cccc(Cl)c34)c(F)c2n1` [Compound 7], in test [1], the GI50 was 0.5 to 5 µM. Moreover, in test [2], the Kd is greater than 5 µM.

Take `Oc1cc(-c2c(Cl)cc3c(N4CC5CCC(C4)N5)nc(OCC45CCCN4CC(F)(F)C5)nc3c2F)c2ccccc2c1` (centres unmarked) [Compound 81]: the GI50 in test [1] is 0.5 to 5 µM. Moreover, in test [2], the Kd is less than 0.5 µM.

Consider `CN1CCC2CCN(c3nc(N4CC5CCC(C4)N5)c4cc(Cl)c(-c5cc(O)cc6ccccc56)c(F)c4n3)CC21` (centres unmarked) [Compound 42], for which, in test [1], the GI50 is 0.5 to 5 µM. For the same compound, the Kd in test [2] was greater than 5 µM.

For `Oc1cc(-c2c(Cl)cc3c(N4CC5CCC(C4)N5)nc(OC[C@]45CCCN4C[C@@H](F)C5)nc3c2F)c2ccccc2c1` (single isomer, unassigned) [Compound 105], the GI50 in test [1] fell in the range of 0.5 to 5 µM. In test [2], the Kd was greater than 5 µM.

On to `CN1C[C@H](O)C[C@H]1COc1nc(N2CC3CCC(C2)N3)c2cc(Cl)c(-c3cc(O)cc4ccccc34)c(F)c2n1` [Compound 80], for which the GI50 in test [1] was greater than 5 µM. The Kd in test [2] was less than 0.5 µM.

On to `Nc1nc2c(-c3c(Cl)cc4c(N5CC6CCC(C5)N6)ncnc4c3F)ccc(F)c2s1` [Compound 140], for which the GI50 in test [1] lay within 0.5 to 5 µM. Besides, in test [2], the Kd is 0.5 to 5 µM.

Take `Cc1cc(-c2c(Cl)cc3c(N4CC5CCC(C4)N5)nc(OC[C@@H]4CCCN4C)nc3c2F)cc2[nH]ncc12` [Compound 109]: the GI50 in test [1] fell in the range of 0.5 to 5 µM. In addition, the Kd in test [2] was greater than 5 µM.

With `Cc1cc(N)nc(-c2c(Cl)cc3c(N4CCN[C@@H](CC#N)C4)nc(OC[C@@H]4C[C@@H](F)CN4C)nc3c2F)c1C(F)(F)F` [Compound 135], the GI50 in test [1] is greater than 5 µM. In addition, the Kd in test [2] was greater than 5 µM.

On to `Oc1cc(-c2ccc3c(N4CC5CCC(C4)N5)nc(OCC45CCCN4CCC5)nc3c2F)c2c(Cl)cccc2c1` [Compound 82], for which, in test [1], the GI50 was greater than 5 µM. The Kd in test [2] is greater than 5 µM.

For orientation: Kd means the equilibrium constant for the complex coming apart.

These data come from US20230242544A1, “QUINAZOLINE COMPOUNDS, PREPARATION METHODS AND USES THEREOF” (INVENTISBIO CO., LTD., priority 2020, published 2023).
